Reference: publication PMC6407204, “Oral administration of the cannabigerol derivative VCE-003.2 promotes subventricular zone neurogenesis and protects against mutant huntingtin-induced neurodegeneration” (Translational Neurodegeneration, 2019)

What was measured:
neural progenitor = test system: neural progenitor; parameters: method as in PMID 27430371; details: cited from earlier work
[1] = test system: 3-NP model of striatal neurodegeneration; experiment: 3-Nitropropionic acid (3-NP) model of striatal neurodegeneration; type: in vivo, C57BL/6 N male mice; details: 10 mg/kg oral gavage every 24 h, sesame oil
Protocol: Supplementary file 40035_2019_148_MOESM6_ESM.pdf: Additional file 6: 3-Nitroproprionic acid model of striatal neurodegeneration. 16-week- old C57BL/6 N male mice (Harlan Ibérica, Barcelona, Spain) were subjected to seven intraperitoneal (i.p.) injections of 50 mg/kg 3-NP (one injection each every 12 h prepared in phosphate-buffered saline (PBS)]. 3-NP-treated animals and their respective non-lesioned controls (injected with PBS) were used for pharmacological studies with VCE-003.2. Treatments consisted of oral gavage every 24 h with VCE-003.2 at a dose of 10 mg/kg using sesame oil as vehicle. 12 h after the last injection of 3-NP motor activity, hindlimb clasping and kyphosis were evaluated as previously described. Animals were euthanized at the indicated time after huntingtin-AAV infection or 12 h after the last injection of 3NP and their brains removed. Statistical analysis: One-way ANOVA followed by the Tuckey’s post hoc test was used to determine the statistical significance. All the in vivo data were expressed as mean ± SEM. […]

[2] = test system: mutant huntingtin-induced neurodegeneration; experiment: Viral model of Huntington's disease, AAV expression of mutant huntingtin (AAV-htt94Q) in mouse striatum; type: in vivo, C57BL/6 N mice; details: 10 mg/kg/day oral
Protocol: Male C57BL/6 N mice (10 weeks old) were housed under standard conditions (12-h light/dark cycle) in groups with access to food and water ad libitum. All experiments were performed in accordance with European Union guidelines and approved by the Animal Research Ethics Committee of Complutense and Córdoba University. Procedures were designed to minimize the number of animals used and their suffering. Constructs expressing CFP-tagged human huntingtin exon 1 harboring a pathogenic polyQ tract of 94 CAG repeats or a normal, non-pathogenic polyQ tract of 16 CAG repeats (kindly provided by Dr. José J. Lucas, Severo Ochoa Molecular Biology Center, Madrid, Spain) were employed using an AAV1/AAV2 mixed serotype, generated by polyethyleneimine transfection of HEK293T cells and subsequent purification in iodixanol gradient. Vectors were injected stereotactically (in 3 μl PBS) into the dorsal striatum in a bilateral manner at coordinates (mm to bregma): antero-posterior + 0.5, lateral ±2.5, dorso-ventral − 3.5 as previously described. VCE-003.2 (10 mg/kg) or vehicle (sesame oil) were orally administered once daily (Fig. 1), and for neurogenesis experiments BrdU (100 mg/kg) was administered i.p. twice daily on the first week after viral injection. RotaRod test was conducted prior to drug injections to avoid acute effects of the compounds under investigation. RotaRod started at 4 rpm, with an acceleration rate of 6 rpm/min until either maximum speed is reached or the mouse falls from the apparatus. Maximum time assay was 10 min. Basal RotaRod performance was determined 6 days prior to striatal injury in 3 consecutive days with 3 trials/day (30 min of rest between each trial), and groups with equivalent motor function were assigned. RotaRod test was performed during 3 consecutive days prior to sacrifice and plasma was obtained for peripheral biomarker analyses. All experiments included a minimum of 6 mice per condition. The precise number of animals analyzed in each experiment is indicated in the corresponding figure legends.
Free floating coronal brain slices (30 μm) were processed as previously described. In brief, after blocking with 10% goat serum, brain sections were incubated with the indicated primary antibodies followed by secondary antibody incubation (2 h at room temperature). The appropriate mouse, rat and rabbit highly cross-adsorbed AlexaFluor 488, AlexaFluor 594 and AlexaFluor 647 secondary antibodies (1:500; Molecular Probes, Leyden, The Netherlands) were used. Samples were subsequently incubated with DAPI (1:5000, Roche) for 10 min, washed with PBS and mounted in Mowiol. All immunofluorescence data were obtained in a blinded manner by independent observers in a minimum of 6 correlative slices, from 1-in-10 series located between − 0.4 to + 1.6 mm to bregma. The lateral SVZ zone was delineated by using DAPI-counterstained cell nuclei, and analyses were performed in the upper dorsal tier, in which positively-labelled cells and immunoreactivity were quantified not beyond 100 μm of the SVZ. Confocal fluorescence images were acquired by using LAS-X software (Wetzlar, Germany) and SP8 microscope with 2 passes by Kalman filter, a 1024X1024 collection box, and pinhole AU 1. […] Cells were quantified within a 20 × 20 μm counting frame, which randomly sampled within a 122.8 × 68.9 μm counting grid. Cells that contacted the lateral or upper exclusion plane were excluded. The total number of cells counted was divided by the number of sampled counting frames and multiplied by its size to obtain the density of positive cells. Co-localization was confirmed by orthogonal projection of 18 z-stack files (1-μm each), and data were expressed as cells/mm^2. […]

[3] = test system: quinolinic acid-administration model of HD; parameters: method as in PMID 27430371; details: cited from earlier work
adipogenic = details: compared with full PPARγ-agonists; cited from earlier work
[4] = AAV-htt16Q and AAV-htt94Q mice, 30 days
[5] = AAV-htt94Q mice, 4 weeks after lesion

CCCCCC1=C(NCC)C(=O)C(CC=C(C)CCC=C(C)C)=C(O)C1=O [VCE-003.2, 2-(3,7-dimethyl-octa-2,6-dienyl)-6-ethylamino-3-hydroxy-5-pentyl-(1,4) benzoquinone]
neural progenitor survival (neural progenitor): increases neural progenitor survival
neuroprotection and anti-inflammatory effect in 3-NP model [1]: neuroprotective and anti-inflammatory
doublecortin-positive neuroblasts in striatum [2, 4]: increased doublecortin-expressing cells
effective neurogenesis, double-positive NeuN/BrdU neurons [2, 4]: effective in promoting neurogenesis
Ascl1-positive transit amplifying progenitors [2, 5]: further promoted Ascl1-positive cell expansion
proliferating SVZ neural stem cells, GFAP/Ki-67 double-labelled [2, 5]: increased the number of proliferating GFAP-positive cells
motor performance, RotaRod latency to fall ([2]; AAV-htt94Q mice, 14 days, vs vehicle): performed better in the RotaRod test
MSN degeneration, DARPP-32 and NeuN immunofluorescence ([2]; AAV-htt94Q mice, 30 days after lesion): prevented htt94Q-induced MSN degeneration
microglial activation, Iba1 immunoreactivity ([2]; AAV-htt94Q mice, vs vehicle): reduced microglial activation
neuroprotection in quinolinic acid model of HD [3]: neuroprotective
adipogenic effect (adipogenic): less adipogenic
